Holding throughout (format): biochemical
The target of one assay is PRMT1 (Homo sapiens, UniProt Q99873). The experiment in a line: HMT panel selectivity: PRMT1. Here is the method: (§1) Note: for EZH2, EZH2/EED/SUZ12/RBAP48/AEBP2 was used in the assay; for EZH1, EZH1/EED/SUZ12/RBAP48/AEBP2 was used in the assay; for MLL, MLL/WDR5/RBBP5/ASH2L/ was use in the assay. a, H3K27me0 peptide was used as substrate for both EZH2 and EZH1 activity; b, H3K27me1 peptide was used as substrate for both EZH2 and EZH1 activity. All HMT reactions were performed as described previously. ref: Proc Natl Acad Sci U S A. 2012 Dec 26;109(52):21360-5.

The next assay concerns the target PRMT8 (Homo sapiens, UniProt Q9NR22). The experiment in a line: HMT panel selectivity: PRMT8. Here is the method: as §1
The next assay concerns the target SETD2 (Homo sapiens, UniProt Q9BYW2). The experiment in a line: HMT panel selectivity: SETD2. Here is the method:
as §1

A further assay concerns the target T1, G9a (Homo sapiens, UniProt Q96KQ7).
T1 sequence (Q96KQ7 1-1210): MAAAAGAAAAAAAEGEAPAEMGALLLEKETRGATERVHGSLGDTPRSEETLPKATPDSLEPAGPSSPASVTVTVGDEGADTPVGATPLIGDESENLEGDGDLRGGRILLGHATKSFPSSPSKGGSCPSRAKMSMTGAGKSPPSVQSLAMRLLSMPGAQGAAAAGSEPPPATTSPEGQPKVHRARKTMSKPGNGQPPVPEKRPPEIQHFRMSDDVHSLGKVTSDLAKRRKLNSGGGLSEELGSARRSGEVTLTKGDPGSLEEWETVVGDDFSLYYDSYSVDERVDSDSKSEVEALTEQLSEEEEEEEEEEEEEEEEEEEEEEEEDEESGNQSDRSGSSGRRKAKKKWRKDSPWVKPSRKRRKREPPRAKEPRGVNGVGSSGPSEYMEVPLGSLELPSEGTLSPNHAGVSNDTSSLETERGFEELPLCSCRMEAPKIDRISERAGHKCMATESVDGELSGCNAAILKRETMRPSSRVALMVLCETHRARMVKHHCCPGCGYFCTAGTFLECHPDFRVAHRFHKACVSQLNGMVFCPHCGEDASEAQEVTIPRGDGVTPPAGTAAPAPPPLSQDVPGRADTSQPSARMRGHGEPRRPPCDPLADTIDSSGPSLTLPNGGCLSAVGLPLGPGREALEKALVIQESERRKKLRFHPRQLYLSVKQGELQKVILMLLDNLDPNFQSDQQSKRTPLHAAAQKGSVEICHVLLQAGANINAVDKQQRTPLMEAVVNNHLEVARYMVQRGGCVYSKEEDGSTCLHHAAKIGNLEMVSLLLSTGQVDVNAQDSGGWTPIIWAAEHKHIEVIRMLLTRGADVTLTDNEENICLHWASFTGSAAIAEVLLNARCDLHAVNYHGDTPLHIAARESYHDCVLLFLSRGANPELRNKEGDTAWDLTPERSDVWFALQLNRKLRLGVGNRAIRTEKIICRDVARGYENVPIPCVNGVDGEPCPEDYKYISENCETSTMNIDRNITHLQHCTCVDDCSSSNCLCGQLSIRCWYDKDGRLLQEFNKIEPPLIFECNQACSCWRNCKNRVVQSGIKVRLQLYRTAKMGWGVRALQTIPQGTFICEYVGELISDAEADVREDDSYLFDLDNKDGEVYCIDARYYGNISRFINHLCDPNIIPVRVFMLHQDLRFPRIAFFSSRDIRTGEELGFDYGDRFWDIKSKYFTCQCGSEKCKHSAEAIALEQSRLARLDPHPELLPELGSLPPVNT
The experiment in a line: HMT panel selectivity: G9a. As for the experimental part:
as §1

Another assay addresses Dot1L (Homo sapiens, UniProt Q8TEK3). The experiment in a line: HMT panel selectivity: Dot1L. As for the experimental part:
as §1

For the next assay, the target named is Suv39H2 (Homo sapiens, UniProt Q9H5I1). Description: HMT panel selectivity: Suv39H2. As for the experimental part:
as §1

The next assay addresses T2, Set7/9 (Homo sapiens, UniProt Q8WTS6).
T2 sequence (Q8WTS6 1-366): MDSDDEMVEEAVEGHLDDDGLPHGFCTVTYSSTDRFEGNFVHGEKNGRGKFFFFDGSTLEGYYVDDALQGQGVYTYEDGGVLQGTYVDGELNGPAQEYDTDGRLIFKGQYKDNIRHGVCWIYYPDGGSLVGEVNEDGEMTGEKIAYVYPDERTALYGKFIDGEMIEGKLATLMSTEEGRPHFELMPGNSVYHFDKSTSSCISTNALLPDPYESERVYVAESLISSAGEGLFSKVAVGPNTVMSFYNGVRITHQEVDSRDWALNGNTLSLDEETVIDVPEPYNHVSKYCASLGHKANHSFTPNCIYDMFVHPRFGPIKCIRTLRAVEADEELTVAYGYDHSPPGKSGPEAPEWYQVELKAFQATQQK
Description: HMT panel selectivity: Set7/9. As for the experimental part:
as §1

The target in assay [1] is EZH1 (EZH1/EED/SUZ12/RBAP48/AEBP2) (Homo sapiens, UniProt O75530+Q92800). The experiment in a line: HMT panel selectivity: EZH1. The source says: Note: for EZH2, EZH2/EED/SUZ12/RBAP48/AEBP2 was used in the assay; for EZH1, EZH1/EED/SUZ12/RBAP48/AEBP2 was used in the assay; for MLL, MLL/WDR5/RBBP5/ASH2L/ was use in the assay. a, H3K27me0 peptide was used as substrate for both EZH2 and EZH1 activity; b, H3K27me1 peptide was used as substrate for both EZH2 and EZH1 activity.

The target in the next assay is SMYD2 (Homo sapiens, UniProt Q9NRG4). Description: HMT panel selectivity: SMYD2. As for the experimental part:
as §1

A further assay concerns the target T3, SETD6 (Homo sapiens, UniProt Q8TBK2).
T3 sequence (Q8TBK2 1-473): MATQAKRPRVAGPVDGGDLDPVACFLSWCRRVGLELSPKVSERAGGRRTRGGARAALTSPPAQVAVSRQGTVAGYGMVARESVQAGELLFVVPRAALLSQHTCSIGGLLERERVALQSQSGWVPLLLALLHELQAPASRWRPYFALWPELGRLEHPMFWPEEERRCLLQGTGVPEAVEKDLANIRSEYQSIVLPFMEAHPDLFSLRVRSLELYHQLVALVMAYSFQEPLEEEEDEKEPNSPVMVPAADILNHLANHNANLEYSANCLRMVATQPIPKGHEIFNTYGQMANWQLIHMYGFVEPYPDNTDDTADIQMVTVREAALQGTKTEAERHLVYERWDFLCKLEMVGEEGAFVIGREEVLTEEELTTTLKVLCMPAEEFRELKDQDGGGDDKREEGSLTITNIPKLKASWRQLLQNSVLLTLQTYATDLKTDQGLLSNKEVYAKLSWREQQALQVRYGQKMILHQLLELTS
Description: HMT panel selectivity: SETD6. Here is the method:
as §1

In the next assay the target is ESET (Homo sapiens, UniProt Q15047). The experiment in a line: HMT panel selectivity: ESET. As for the experimental part:
as §1

These results are taken from article PMC5224880, “Discovery and Molecular Basis of a Diverse Set of Polycomb Repressive Complex 2 Inhibitors Recognition by EED” (PLoS ONE, 2017).

SETD2, sequence (Q9BYW2 whole entry, species assumed): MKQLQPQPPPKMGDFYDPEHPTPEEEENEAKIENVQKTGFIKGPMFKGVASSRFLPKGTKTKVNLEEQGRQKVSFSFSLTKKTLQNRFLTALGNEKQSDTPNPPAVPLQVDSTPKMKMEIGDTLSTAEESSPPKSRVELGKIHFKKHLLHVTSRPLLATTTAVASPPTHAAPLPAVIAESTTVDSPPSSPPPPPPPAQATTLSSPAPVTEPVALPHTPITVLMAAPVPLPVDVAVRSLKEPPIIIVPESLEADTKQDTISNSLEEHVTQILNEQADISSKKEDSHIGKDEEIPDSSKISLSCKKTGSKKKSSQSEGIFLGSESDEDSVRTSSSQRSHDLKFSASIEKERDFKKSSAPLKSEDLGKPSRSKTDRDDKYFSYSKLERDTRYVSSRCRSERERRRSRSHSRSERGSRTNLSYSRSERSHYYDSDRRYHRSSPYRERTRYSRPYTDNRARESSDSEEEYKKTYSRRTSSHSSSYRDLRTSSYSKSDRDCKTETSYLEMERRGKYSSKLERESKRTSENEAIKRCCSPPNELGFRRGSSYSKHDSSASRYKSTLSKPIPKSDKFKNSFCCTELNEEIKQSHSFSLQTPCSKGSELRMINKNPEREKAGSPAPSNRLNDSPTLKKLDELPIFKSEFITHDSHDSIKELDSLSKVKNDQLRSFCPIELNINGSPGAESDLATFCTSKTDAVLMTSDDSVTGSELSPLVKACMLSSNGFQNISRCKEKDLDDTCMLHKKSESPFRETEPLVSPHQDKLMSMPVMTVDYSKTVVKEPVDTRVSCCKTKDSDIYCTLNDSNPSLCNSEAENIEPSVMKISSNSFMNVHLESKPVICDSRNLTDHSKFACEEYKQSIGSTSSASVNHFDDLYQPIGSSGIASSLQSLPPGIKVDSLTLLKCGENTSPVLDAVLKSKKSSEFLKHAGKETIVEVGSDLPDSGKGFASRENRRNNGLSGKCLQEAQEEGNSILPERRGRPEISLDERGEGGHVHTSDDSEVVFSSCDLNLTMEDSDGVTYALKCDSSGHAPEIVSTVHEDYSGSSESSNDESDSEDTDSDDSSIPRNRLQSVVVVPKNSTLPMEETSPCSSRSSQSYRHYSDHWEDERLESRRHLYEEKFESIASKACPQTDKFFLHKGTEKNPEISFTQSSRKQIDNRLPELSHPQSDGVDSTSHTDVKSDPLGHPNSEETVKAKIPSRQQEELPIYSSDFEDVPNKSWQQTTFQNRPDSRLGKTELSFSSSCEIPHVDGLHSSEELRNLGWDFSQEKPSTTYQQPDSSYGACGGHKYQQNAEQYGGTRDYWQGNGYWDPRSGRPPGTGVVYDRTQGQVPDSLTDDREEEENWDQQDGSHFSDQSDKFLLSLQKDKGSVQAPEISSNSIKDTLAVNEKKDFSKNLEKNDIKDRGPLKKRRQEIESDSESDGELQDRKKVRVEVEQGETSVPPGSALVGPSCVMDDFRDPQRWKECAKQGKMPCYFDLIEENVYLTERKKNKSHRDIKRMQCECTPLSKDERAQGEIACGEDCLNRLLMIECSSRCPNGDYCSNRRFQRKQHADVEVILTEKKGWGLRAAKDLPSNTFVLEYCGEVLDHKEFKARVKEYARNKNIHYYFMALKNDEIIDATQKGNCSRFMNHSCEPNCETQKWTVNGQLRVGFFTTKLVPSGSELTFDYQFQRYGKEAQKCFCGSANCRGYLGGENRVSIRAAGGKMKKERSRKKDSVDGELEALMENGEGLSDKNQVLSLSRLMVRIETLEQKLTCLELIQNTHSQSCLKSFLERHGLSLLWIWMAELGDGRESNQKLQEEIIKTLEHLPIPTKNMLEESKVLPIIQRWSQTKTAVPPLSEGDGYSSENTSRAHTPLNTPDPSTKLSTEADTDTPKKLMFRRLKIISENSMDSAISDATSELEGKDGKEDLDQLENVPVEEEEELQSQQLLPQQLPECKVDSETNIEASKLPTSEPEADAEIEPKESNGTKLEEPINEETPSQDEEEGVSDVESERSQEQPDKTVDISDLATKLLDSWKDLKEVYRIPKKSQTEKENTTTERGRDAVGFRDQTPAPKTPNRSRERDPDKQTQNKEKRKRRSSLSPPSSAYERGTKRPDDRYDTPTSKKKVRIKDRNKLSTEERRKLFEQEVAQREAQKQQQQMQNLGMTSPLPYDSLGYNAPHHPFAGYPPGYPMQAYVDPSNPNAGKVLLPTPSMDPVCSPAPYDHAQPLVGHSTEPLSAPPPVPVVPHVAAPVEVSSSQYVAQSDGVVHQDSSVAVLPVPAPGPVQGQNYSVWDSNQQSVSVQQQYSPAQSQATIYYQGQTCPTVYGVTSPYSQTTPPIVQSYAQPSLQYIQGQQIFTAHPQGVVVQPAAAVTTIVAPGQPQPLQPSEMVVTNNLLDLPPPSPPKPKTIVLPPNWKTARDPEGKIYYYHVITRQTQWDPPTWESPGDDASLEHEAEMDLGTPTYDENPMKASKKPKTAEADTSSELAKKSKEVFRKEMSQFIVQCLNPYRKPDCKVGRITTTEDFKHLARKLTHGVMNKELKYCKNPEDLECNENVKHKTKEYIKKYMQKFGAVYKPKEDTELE
Dot1L, sequence (Q8TEK3 whole entry, species assumed): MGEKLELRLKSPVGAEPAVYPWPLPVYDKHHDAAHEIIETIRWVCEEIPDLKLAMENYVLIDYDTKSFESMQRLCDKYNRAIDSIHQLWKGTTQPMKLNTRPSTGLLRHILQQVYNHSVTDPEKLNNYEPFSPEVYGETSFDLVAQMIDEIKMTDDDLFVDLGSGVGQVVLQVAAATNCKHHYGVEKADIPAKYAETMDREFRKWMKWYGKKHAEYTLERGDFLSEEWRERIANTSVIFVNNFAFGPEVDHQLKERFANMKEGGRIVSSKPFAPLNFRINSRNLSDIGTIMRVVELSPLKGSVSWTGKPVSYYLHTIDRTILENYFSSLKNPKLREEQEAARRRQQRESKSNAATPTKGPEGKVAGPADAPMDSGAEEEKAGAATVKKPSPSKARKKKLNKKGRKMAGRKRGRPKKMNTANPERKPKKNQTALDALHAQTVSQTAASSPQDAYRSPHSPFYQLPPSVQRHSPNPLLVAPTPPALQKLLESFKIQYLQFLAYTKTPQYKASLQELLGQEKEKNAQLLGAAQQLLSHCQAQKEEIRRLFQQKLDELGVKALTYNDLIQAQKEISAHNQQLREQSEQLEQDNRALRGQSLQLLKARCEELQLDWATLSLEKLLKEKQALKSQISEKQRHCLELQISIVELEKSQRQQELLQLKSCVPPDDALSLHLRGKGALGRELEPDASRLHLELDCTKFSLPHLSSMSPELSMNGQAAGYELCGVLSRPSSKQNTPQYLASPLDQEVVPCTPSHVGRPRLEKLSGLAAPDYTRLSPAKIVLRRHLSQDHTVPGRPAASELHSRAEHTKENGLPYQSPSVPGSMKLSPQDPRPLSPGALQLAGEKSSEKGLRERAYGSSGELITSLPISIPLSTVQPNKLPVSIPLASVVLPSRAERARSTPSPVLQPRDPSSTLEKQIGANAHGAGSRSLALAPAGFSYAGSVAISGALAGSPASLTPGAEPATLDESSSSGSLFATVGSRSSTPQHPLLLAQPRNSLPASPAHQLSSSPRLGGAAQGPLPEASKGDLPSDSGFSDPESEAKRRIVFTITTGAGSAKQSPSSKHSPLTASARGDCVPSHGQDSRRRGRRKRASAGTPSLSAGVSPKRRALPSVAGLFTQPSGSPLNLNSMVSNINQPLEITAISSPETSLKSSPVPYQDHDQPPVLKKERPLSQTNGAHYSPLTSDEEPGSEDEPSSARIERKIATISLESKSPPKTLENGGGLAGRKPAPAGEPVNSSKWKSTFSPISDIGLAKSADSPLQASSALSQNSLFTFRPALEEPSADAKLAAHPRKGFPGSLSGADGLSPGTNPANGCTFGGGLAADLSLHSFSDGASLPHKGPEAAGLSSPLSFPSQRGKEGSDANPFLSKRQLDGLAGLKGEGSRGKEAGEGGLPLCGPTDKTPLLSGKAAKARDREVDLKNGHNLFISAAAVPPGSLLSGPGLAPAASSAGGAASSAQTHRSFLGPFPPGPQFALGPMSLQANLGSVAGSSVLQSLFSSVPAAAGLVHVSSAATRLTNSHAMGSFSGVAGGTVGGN
PRMT8, sequence (Q9NR22 whole entry, species assumed): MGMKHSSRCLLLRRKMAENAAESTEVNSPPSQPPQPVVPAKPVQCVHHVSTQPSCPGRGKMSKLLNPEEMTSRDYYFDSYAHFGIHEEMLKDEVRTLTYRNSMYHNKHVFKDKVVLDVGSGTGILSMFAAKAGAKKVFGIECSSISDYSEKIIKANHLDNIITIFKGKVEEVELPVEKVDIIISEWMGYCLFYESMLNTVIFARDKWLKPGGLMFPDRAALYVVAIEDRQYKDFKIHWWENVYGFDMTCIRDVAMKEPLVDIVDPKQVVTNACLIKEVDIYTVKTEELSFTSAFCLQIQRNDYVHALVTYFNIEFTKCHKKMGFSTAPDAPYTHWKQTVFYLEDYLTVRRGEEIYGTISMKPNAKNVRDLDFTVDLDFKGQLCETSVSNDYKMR
SMYD2, sequence (Q9NRG4 whole entry, species assumed): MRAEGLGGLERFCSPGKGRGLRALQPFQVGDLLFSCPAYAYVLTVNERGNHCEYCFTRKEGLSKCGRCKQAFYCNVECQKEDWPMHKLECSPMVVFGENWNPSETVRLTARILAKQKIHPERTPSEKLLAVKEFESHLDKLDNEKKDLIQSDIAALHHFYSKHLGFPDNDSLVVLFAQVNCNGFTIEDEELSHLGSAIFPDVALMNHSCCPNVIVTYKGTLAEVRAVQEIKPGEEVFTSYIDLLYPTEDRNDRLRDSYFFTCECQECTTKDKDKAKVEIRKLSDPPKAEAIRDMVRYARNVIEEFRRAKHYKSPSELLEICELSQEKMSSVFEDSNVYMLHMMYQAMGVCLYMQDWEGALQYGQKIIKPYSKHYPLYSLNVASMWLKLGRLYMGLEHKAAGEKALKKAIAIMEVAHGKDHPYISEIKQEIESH

A word on the IC50: it is the concentration needed to halve the response being measured. Low values mean inhibition by little substance, high ones a need for much substance. On to `N#Cc1c2c(c3nncn3c1NCc1ccco1)CN(Cc1ccccc1)CC2` [EED162], for which the half-maximal inhibitory concentration (IC50) at PRMT1, against PRMT8, on SETD2, against G9a, against Dot1L and on Suv39H2 was greater than 100 µM throughout. The IC50 against Set7/9 was greater than 100 µM; in assay [1], 5.1 µM; on SMYD2 it was greater than 100 µM; on SETD6 it was greater than 100 µM; against ESET, greater than 100 µM.

On to `COc1cccc(CC2CC3Cc4c(cccc4OC)CC3N(C)C2)c1` (centres unmarked) [EED210], for which the IC50 on PRMT1, against PRMT8, on SETD2, against G9a, against Dot1L and against Suv39H2 was greater than 100 µM throughout. Moreover, the half-maximal inhibitory concentration (IC50) at Set7/9, against SMYD2, at SETD6 and on ESET was greater than 100 µM in each case.

Consider `COc1cc(-c2cc3n(c(=N)c2C#N)CCc2cc4c(cc2-3)OCO4)ccc1OC(C)C` [EED396], for which the IC50 at PRMT1, against PRMT8, against SETD2, at G9a, on Dot1L and against Suv39H2 was greater than 100 µM in each case. Besides, the IC50 on Set7/9 is greater than 100 µM; in [1], 70 µM; against SMYD2 it was greater than 100 µM; on SETD6 it was greater than 100 µM; at ESET, greater than 100 µM.

Take `Cc1cc(C)n(-c2cc(N3CCc4ccccc4C3)ccc2[N+](=O)[O-])n1` [EED666]: the IC50 on PRMT1, against PRMT8, against SETD2, against G9a, against Dot1L and against Suv39H2 was greater than 100 µM each time. Moreover, the IC50 was greater than 100 µM against Set7/9; 66 µM in assay [1]; greater than 100 µM against SMYD2; greater than 100 µM against SETD6; greater than 100 µM against ESET.

As for `COc1ccccc1CN1CC(c2cn(C)c3ccccc23)C(N(C)C)C1` (centres unmarked) [EED709], the IC50 against PRMT1, against PRMT8, against SETD2, against G9a, against Dot1L and at Suv39H2 was greater than 100 µM each time. Further, the IC50 against Set7/9, on SMYD2, against SETD6 and at ESET was greater than 100 µM in each case.
